Test results: US20240383852A1, “ANTI-VIRAL COMPOUNDS” (INFEX Therapeutics Limited, priority 2021, published 2024)
Structures can show the parent of a compound that is named as a salt. Where two headings read alike, the source gives them in different places.

Assays:
SARS-CoV-2 PLpro = molecular target: T1, SARS-CoV-2 PLpro (Severe acute respiratory syndrome coronavirus 2, UniProt P0DTD1); experiment: biochemical
T1 construct: containing 60 nM papain-like protease

[1] = tested on: human Hep G2 cells (ATCC HB-8065); experiment: Cytotoxicity in Hep G2 cells (CellTiter-Glo); type: cell-based
[2] = 60 nM papain-like protease, 50 μM Z-RLRGG-AMC, pH 7.5, 37° C., read-out: SARS-CoV-2 PLpro IC50
[3] = Hep G2 cells, 100 μM test article, 24-hour exposure

| Structure (SMILES) | IC50 (SARS-CoV-2 PLpro; [2]) | % Cell Viability [1, 3] | other results |
| --- | --- | --- | --- |
| COC(=O)CCN1CCN(c2cccc(C(=O)N[C@H](C)c3cccc4ccccc34)c2)CC1 [Example 160, Methyl 3-[4-[3-[[(1R)-1-(1-naphthyl)ethyl]carbamoyl]phenyl]piperazin-1-yl]propanoate] | < 100 µM | 101.8% | – |
| Cc1ccc(N2C[C@H]3C[C@@H]2CN3C)cc1C(=O)N[C@H](C)c1cccc(Br)c1 [Example 123, N-[(1R)-1-(3-bromophenyl)ethyl]-2-methyl-5-[(1R,4R)-5-methyl-2,5-diazabicyclo[2.2.1]heptan-2-yl]benzamide] | < 2 µM | 32.9% | – |
| COc1ccc([C@@H](C)NC(=O)c2cc(N3CCN(C)CC3)ccc2C)cc1-c1ccn(C)n1 [Example 207, N-[(1R)-1-[4-Methoxy-3-(1-methylpyrazol-3-yl)phenyl]ethyl]-2-methyl-5-(4-methylpiperazin-1-yl)benzamide] | < 2 µM | 103.7% | – |
| COc1cc(-c2cnn(C)c2)cc([C@@H](C)NC(=O)c2cc(N3C[C@H]4CC[C@@H](C3)N4CC3CC3)ccc2C)c1 [Example 274, 5-[(1R,5S)-8-(Cyclopropylmethyl)-3,8-diazabicyclo[3.2.1]octan-3-yl]-N-[(1R)-1-[3-methoxy-5-(1-methylpyrazol-4-yl)phenyl]ethyl]-2-methyl-benzamide] | – | – | IC50 (SARS-CoV-2 PLpro): < 2 µM; % Cell Viability ([1]; human, 24 h, 100 μM): 38.7% |
| Cc1ccc(N2CCN(C)CC2)cc1C(=O)N[C@H](C)c1cccc(-c2cccc(C(C)(C)O)c2)c1 [Example 45, N-[(1R)-1-[3-[3-(1-Hydroxy-1-methyl-ethyl)phenyl]phenyl]ethyl]-2-methyl-5-(4-methylpiperazin-1-yl)benzamide] | < 2 µM | 59.5% | – |
| Cc1ccc(N2CCCN(CCC(=O)O)CC2)cc1C(=O)N[C@H](C)c1cccc2ccccc12 [Example 163, 3-[4-[4-Methyl-3-[[(1R)-1-(1-naphthyl)ethyl]carbamoyl]phenyl]-1,4-diazepan-1-yl]propanoic acid] | < 5 µM | 122.4% | – |
| Cc1ccc(N2CCN(C)CC2)cc1C(=O)N[C@H](C)c1cccc(-c2ccc(CO)s2)c1 [Example 79, N-[(1R)-1-[3-[5-(Hydroxymethyl)-2-thienyl]phenyl]ethyl]-2-methyl-5-(4-methylpiperazin-1-yl)benzamide] | < 2 µM | 52.9% | – |
| Cc1ccc(N2CCN(CCO)CC2)cc1C(=O)N[C@H](C)c1cccc2ccccc12 [Example 111, 5-[4-(2-Hydroxyethyl)piperazin-1-yl]-2-methyl-N-[(1R)-1-(1-naphthyl)ethyl]benzamide] | < 2 µM | 74.8% | – |
| COc1cc([C@@H](C)NC(=O)c2cc(N3C[C@H]4C[C@@H]3CN4C)ccc2C)ccc1OCC1CC1 [Example 297, N-[(1R)-1-[4-(Cyclopropylmethoxy)-3-methoxy-phenyl]ethyl]-2-methyl-5-[(1R,4R)-5-methyl-2,5-diazabicyclo[2.2.1]heptan-2-yl]benzamide] | < 2 µM | 61.1% | – |
| COc1cc(-c2cnn(C)c2)cc([C@@H](C)NC(=O)c2cc(N3CC4CN(C)CC4C3)ccc2C)c1 (stereo partly drawn) [Example 242, N-[(1R)-1-[3-Methoxy-5-(1-methylpyrazol-4-yl)phenyl]ethyl]-2-methyl-5-(2-methyl-1,3,3a,4,6,6a-hexahydropyrrolo[3,4-c]pyrrol-5-yl)benzamide] | < 2 µM | 62.4% | – |
| Cc1ccc(N2CCN(C)CC2)cc1C(=O)N[C@H](C)c1cccc(F)c1 [Example 25, N-[(1R)-1-(3-Fluorophenyl)ethyl]-2-methyl-5-(4-methylpiperazin-1-yl)benzamide] | < 20 µM | 95.2% | – |
| COc1ccc([C@@H](C)NC(=O)c2cc(N3[C@@H]4CC[C@H]3CN(C)C4)ccc2C)cc1OC [Example 10, N-[(1R)-1-(3,4-Dimethoxyphenyl)ethyl]-2-methyl-5-[(1S,5R)-3-methyl-3,8-diazabicyclo[3.2.1]octan-8-yl]benzamide] | – | – | IC50 (SARS-CoV-2 PLpro): < 100 µM |
| Cc1cnc(N2CCN(C)CC2)nc1C(=O)N[C@H](C)c1cccc2ccccc12 [Example 8, 5-Methyl-2-(4-methylpiperazin-1-yl)-N-[(1R)-1-(naphthalen-1-yl)ethyl]pyrimidine-4-carboxamide Hydrochloride Salt] | < 100 µM | – | – |
| Cc1ccc(N2CCN(C)CC2)cc1C(=O)N[C@H](C)c1cc(OC(F)F)cc(-c2cnn(C)c2)c1 [Example 283, N-[(1R)-1-[3-(Difluoromethoxy)-5-(1-methylpyrazol-4-yl)phenyl]ethyl]-2-methyl-5-(4-methylpiperazin-1-yl)benzamide] | < 2 µM | – | – |
| C[C@@H](NC(=O)c1cc(-c2ccccc2)ccn1)c1cccc2ccccc12 [Example 3, N-[(1R)-1-(1-Naphthyl)ethyl]-4-phenyl-pyridine-2-carboxamide] | > 100 µM | – | – |
| COc1c(Br)cccc1[C@@H](C)NC(=O)c1cc(N2CCN(C)CC2)ccc1C [Example 194, N-[(1R)-1-(3-Bromo-2-methoxy-phenyl)ethyl]-2-methyl-5-(4-methylpiperazin-1-yl)benzamide] | < 100 µM | – | – |
| Cc1ccc(N2CCN(CC(=O)O)CC2)cc1C(=O)N[C@H](C)c1cccc2ccccc12 [Example 171, 2-[4-[4-Methyl-3-[[(1R)-1-(1-naphthyl)ethyl]carbamoyl]phenyl]piperazin-1-yl]acetic Acid] | < 2 µM | – | – |

| Structure (SMILES) | IC50 (SARS-CoV-2 PLpro; [2]) | % Cell Viability [1, 3] | other results |
| --- | --- | --- | --- |
| C[C@@H](NC(=O)c1cc(-c2ccc(C3CCNCC3)cc2)cn1C)c1cccc2ccccc12 [Example 151, 1-Methyl-N-[(1R)-1-(1-naphthyl)ethyl]-4-[4-(4-piperidyl)phenyl]pyrrole-2-carboxamide] | > 100 µM | – | – |
| Cc1ccc(-c2ccnc(N3CCN(CCC(=O)O)CC3)c2)cc1C(=O)N[C@H](C)c1cccc2ccccc12 [Example 169, 3-[4-[4-[4-Methyl-3-[[(1R)-1-(1-naphthyl)ethyl]carbamoyl]phenyl]-2-pyridyl]piperazin-1-yl]propanoic acid] | < 20 µM | – | – |
| Cc1ccc(N2CCN(C)CC2)cc1C(=O)N[C@H](C)c1cccc2c1OCCO2 [Example 183, N-[(1R)-1-(2,3-Dihydro-1,4-benzodioxin-5-yl)ethyl]-2-methyl-5-(4-methylpiperazin-1-yl)benzamide] | < 20 µM | – | – |
| C[C@@H](NC(=O)c1cccc(N2CCCCC2)c1)c1cccc2ccccc12 [Example 1, N-[(1R)-1-(1-naphthyl)ethyl]-3-(1-piperidyl)benzamide] | > 100 µM | – | – |
| C[C@@H](NC(=O)c1cccc(-c2ccnc(N3CCOCC3)n2)c1)c1cccc2ccccc12 [Example 138, 3-(2-Morpholinopyrimidin-4-yl)-N-[(1R)-1-(1-naphthyl)ethyl]benzamide] | > 100 µM | – | – |
| Cc1ccc(N2CCN(C)CC2)cc1C(=O)N[C@H](C)c1cnn(C)c1 [Example 127, 2-Methyl-5-(4-methylpiperazin-1-yl)-N-[(1R)-1-(1-methylpyrazol-4-yl)ethyl]benzamide] | < 100 µM | – | – |
| Cc1ccc(N2CCN(C)CC2)cc1C(=O)N[C@H](C)c1cc(OC(C)C)cc(-c2cnn(C)c2)c1 [Example 279, N-[(1R)-1-[3-Isopropoxy-5-(1-methylpyrazol-4-yl)phenyl]ethyl]-2-methyl-5-(4-methylpiperazin-1-yl)benzamide] | < 2 µM | – | – |
| CNCCN(C)C(=O)c1cccc([C@@H](C)NC(=O)c2cc(N3CCN(C)CC3)ccc2C)c1 [Example 314, 2-Methyl-N-[(1R)-1-[3-[methyl-[2-(methylamino)ethyl]carbamoyl]phenyl]ethyl]-5-(4-methylpiperazin-1-yl)benzamide Dihydrochloride Salt] | < 20 µM | – | – |
| Cc1ccc(-c2cn[nH]c2)cc1C(=O)N[C@H](C)c1cccc2ccccc12 [Example 153, 2-Methyl-N-[(1R)-1-(1-naphthyl)ethyl]-5-(1H-pyrazol-4-yl)benzamide] | < 20 µM | – | – |
| COc1cc(-c2cn(C)nc2C)cc([C@@H](C)NC(=O)c2cc(C3CCNCC3)ccc2C)c1 [Example 304, N-[(1R)-1-[3-(1,3-Dimethylpyrazol-4-yl)-5-methoxy-phenyl]ethyl]-2-methyl-5-(4-piperidyl)benzamide] | < 2 µM | – | – |
| Cc1ccc(N2CCN(C)CC2)cc1C(=O)N[C@H](C)c1cccc(S(C)(=O)=O)c1 [Example 38, 2-Methyl-5-(4-methylpiperazin-1-yl)-N-[(1R)-1-(3-methylsulfonylphenyl)ethyl] benzamide] | < 20 µM | – | – |
| C[C@@H](NC(=O)c1cc(-c2ccncc2)cn1C)c1cccc2ccccc12 [Example 148, 1-Methyl-N-[(1R)-1-(1-naphthyl)ethyl]-4-(4-pyridyl)pyrrole-2-carboxamide] | > 100 µM | – | – |
| Cc1ccc(N2CCN(C)CC2)cc1C(=O)N[C@H](C)c1cccc(N2CCN(C)CC2)c1 [Example 104] | – | 82.7% | – |
| C[C@@H](NC(=O)c1ccnc(N2CCN(C)CC2)n1)c1cccc2ccccc12 [Example 316, 2-(4-Methylpiperazin-1-yl)-N-[(1R)-1-(1-naphthyl)ethyl]pyrimidine-4-carboxamide Hydrochloride Salt] | < 100 µM | – | – |
| C[C@@H](NC(=O)c1cccc(-c2ccnc(N3CCN(C)CC3)n2)c1)c1cccc2ccccc12 [Example 137, 3-[2-(4-Methylpiperazin-1-yl)pyrimidin-4-yl]-N-[(1R)-1-(1-naphthyl)ethyl]benzamide] | > 100 µM | – | – |
| CCOc1cc(-c2cnn(C)c2)cc([C@@H](C)NC(=O)c2cc(N3CCN(C)CC3)ccc2C)c1 [Example 278, N-[(1R)-1-[3-Ethoxy-5-(1-methylpyrazol-4-yl)phenyl]ethyl]-2-methyl-5-(4-methylpiperazin-1-yl)benzamide] | < 2 µM | – | – |
| Cc1ccc(N2CCN(C)CC2)cc1C(=O)N[C@H](C)c1cccc(CCC(=O)O)c1 [Example 82, 3-[3-[(1R)-1-[[2-Methyl-5-(4-methylpiperazin-1-yl)benzoyl]amino]ethyl]phenyl] propanoic Acid] | < 100 µM | – | – |
